# What was measured:
# Assay type in all cases: in vivo
# Glycine max = experiment: Post-emergence test; settings: 2-4 weeks after treatment
# Method: To evaluate their herbicidal activity, compounds according to the invention are tested using a representative range of plants:
# (§1) These acetone solutions are diluted with water and the resulting formulations applied at dosage levels equivalent of about 0.1 to 0. 4 kg per hectare of test compound per pot. After spraying the plants are placed on greenhouse benches and are cared for in the usual manner, commensurate with conventional greenhouse practices. From 2 to 4 weeks after treatment, the seedling plants are examined and rated according to the rating system provided above.
# Hordeum vulgare [1] = experiment: Post-emergence test; settings: 2-4 weeks after treatment
# Method: as §1, with “To evaluate their herbicidal activity, compounds according to the invention are tested using a representative range of plants: HORVW Hordeum vulgare [table] […] These” for “These”
# soybeans, wheat = experiment: Crop selectivity in pre- and post-emergence application; settings: dose of 0.1 kg/ha
# Method: (§2) The pre-emergence tests involve spraying a liquid formulation of the compound onto the soil in which the seeds of the plant species mentioned above has recently been sown. The soil used in the tests is a prepared horticultural loam. The formulations used in the tests are prepared from solutions of the test compounds in acetone containing 0.4% by weight of an alkylphenol/ethylene oxide condensate available under the trade mark TRITON X-155. These acetone solutions are diluted with water and the resulting formulations applied at dosage levels corresponding to 0.025 kg, 0.100 kg or 0.400 kg of active material per hectare in a volume equivalent to 900 litres per hectare. In these tests untreated sown soil are used as controls. […] These acetone solutions are diluted with water and the resulting formulations applied at dosage levels equivalent of about 0.1 to 0. 4 kg per hectare of test compound per pot. After spraying the plants are placed on greenhouse benches and are cared for in the usual manner, commensurate with conventional greenhouse practices. From 2 to 4 weeks after treatment, the seedling plants are examined and rated according to the rating system provided above.
# Echinochloa crus-galli = experiment: Post-emergence test; settings: 2-4 weeks after treatment
# Method: as §1, with “To evaluate their herbicidal activity, compounds according to the invention are tested using a representative range of plants: ECHCG Echinochloa crus-galli [table] […] These” for “These”
# weeds = experiment: Overall weed control in pre- and post-emergence application; settings: dose of 0.1 kg/ha
# Method: as §2
# Ipomoea hederacea = experiment: Pre-emergence test; settings: 3 weeks after treatment
# Method: (§3) To evaluate their herbicidal activity, compounds according to the invention are tested using a representative range of plants: IPHOE Ipomoea hederacea The pre-emergence tests involve spraying a liquid formulation of the compound onto the soil in which the seeds of the plant species mentioned above has recently been sown. The soil used in the tests is a prepared horticultural loam. The formulations used in the tests are prepared from solutions of the test compounds in acetone containing 0.4% by weight of an alkylphenol/ethylene oxide condensate available under the trade mark TRITON X-155. These acetone solutions are diluted with water and the resulting formulations applied at dosage levels corresponding to 0.025 kg, 0.100 kg or 0.400 kg of active material per hectare in a volume equivalent to 900 litres per hectare. In these tests untreated sown soil are used as controls. From 2 to 4 weeks after treatment, the tests are terminated and each pot is examined and rated according to the rating system set forth below: [table]
# Zea mays = experiment: Post-emergence test; settings: 2-4 weeks after treatment
# Method: as §1, with “To evaluate their herbicidal activity, compounds according to the invention are tested using a representative range of plants: ZEAMX Zea mays [table] […] These” for “These”
# Hordeum vulgare [2] = experiment: Pre-emergence test; settings: 3 weeks after treatment
# Method: as §3, with “HORVW Hordeum vulgare” for “IPHOE Ipomoea hederacea”
# Alopecurus myosuroides = experiment: Pre-emergence test; settings: 3 weeks after treatment
# Method: as §3, with “ALOMY Alopecurus myosuroides” for “IPHOE Ipomoea hederacea”
Compound,GLXMA herbicidal rating (Glycine max; 0.1 kg/ha),GLXMA herbicidal rating (Glycine max; 0.4 kg/ha),HORVW herbicidal rating (Hordeum vulgare [1]; 0.1 kg/ha),HORVW herbicidal rating (Hordeum vulgare [1]; 0.4 kg/ha),"tolerance in soybeans and wheat (soybeans, wheat)",ECHCG herbicidal rating (Echinochloa crus-galli; 0.1 kg/ha),ECHCG herbicidal rating (Echinochloa crus-galli; 0.4 kg/ha),overall levels of weed control (weeds),IPOHE herbicidal rating (Ipomoea hederacea; 0.025 kg/ha),IPOHE herbicidal rating (Ipomoea hederacea; 0.100 kg/ha),IPOHE herbicidal rating (Ipomoea hederacea; 0.400 kg/ha),ZEAMX herbicidal rating (Zea mays; 0.1 kg/ha),ZEAMX herbicidal rating (Zea mays; 0.4 kg/ha),HORVW herbicidal rating (Hordeum vulgare [2]; 0.025 kg/ha),HORVW herbicidal rating (Hordeum vulgare [2]; 0.100 kg/ha),HORVW herbicidal rating (Hordeum vulgare [2]; 0.400 kg/ha),ALOMY herbicidal rating (Alopecurus myosuroides; 0.025 kg/ha),ALOMY herbicidal rating (Alopecurus myosuroides; 0.100 kg/ha),ALOMY herbicidal rating (Alopecurus myosuroides; 0.400 kg/ha)
"Cn1nc(C(F)(F)F)cc1Oc1cc(C#N)cc(-c2cc(C(F)(F)F)nn2C)n1 [Example 3, 4-Cyano-2-(1-methyl-3-trifluoromethylpyrazol-5-yloxy)-6-(1-methyl-3-trifluoromethylpyrazol-5-yl)pyridine]",3 (3 - Moderate effect),4 (4 - Injury),3 (3 - Moderate effect),5 (5 - Definite injury),well tolerated,4 (4 - Injury),4 (4 - Injury),good overall levels of weed control,2 (2 - Slight effect),2 (2 - Slight effect),9 (9 - Complete kill),2 (2 - Slight effect),4 (4 - Injury),2 (2 - Slight effect),3 (3 - Moderate effect),5 (5 - Definite injury),2 (2 - Slight effect),3 (3 - Moderate effect),5 (5 - Definite injury)
"Cc1cnc(-c2cc(C(F)(F)F)nn2C)nc1Oc1cc(C(F)(F)F)nn1C [Example 4, 2-(1-Methyl-3-trifluoromethylpyrazol-5-yl)-6-(1-methyl-3-trifluoromethylpyrazol-5-yloxy)-5-methylpyrimidine]",4 (4 - Injury),6 (6 - Herbicidal effect),3 (3 - Moderate effect),5 (5 - Definite injury),well tolerated,8 (8 - Approaching complete kill),8 (8 - Approaching complete kill),good overall levels of weed control,4 (4 - Injury),6 (6 - Herbicidal effect),9 (9 - Complete kill),2 (2 - Slight effect),4 (4 - Injury),2 (2 - Slight effect),4 (4 - Injury),5 (5 - Definite injury),2 (2 - Slight effect),6 (6 - Herbicidal effect),8 (8 - Approaching complete kill)
Cc1cc(Oc2cccc(C(F)(F)F)c2)nc(-c2cc(C(F)(F)F)nn2C)c1 [Example 63],3 (3 - Moderate effect),7 (7 - Good herbicidal effect),3 (3 - Moderate effect),3 (3 - Moderate effect),,3 (3 - Moderate effect),3 (3 - Moderate effect),,0 (0 - No effect),0 (0 - No effect),3 (3 - Moderate effect),2 (2 - Slight effect),3 (3 - Moderate effect),0 (0 - No effect),0 (0 - No effect),2 (2 - Slight effect),0 (0 - No effect),1 (1 - Trace effect),5 (5 - Definite injury)
